Test system: peripheral blood mononuclear cells (PBMC)
Assay: cultured IFNγ ELISpot over 10 days with PBMCs stimulated with Pf Ferlin epitopes
Assay type: cell-based, human
Experimental: Each epitope was tested both individually and in pools of epitopes, which is summarised in this figure. Freshly isolated PBMCs from the blood of malaria-exposed and non-exposed (naïve) individuals were stimulated with the Pf Ferlin epitopes. The secretion of IFNγ was analysed by ELISpot. Pf AMA1, a known malarial blood stage antigen, was used as a positive control (FIG. 12B).
In order to investigate the presence of Pf Ferlin-specific T cells in malaria-exposed individuals, T-cell responses to Pf Ferlin peptides (NLLDPLVVV (SEQ ID NO:4), YLYVNIHKI (SEQ ID NO:5), LLLEGNFYL (SEQ ID NO:6), KLIPVNYEL (SEQ ID NO:7), YLYEKQQEL (SEQ ID NO:8), ILIPSLPLI (SEQ ID NO:9)) were tested in semi-immune Kenyan adults in collaboration with Dr. Britta urban at the Kenyan Medical Research Institute-Wellcome Trust Research Programme (KEMRI). All adults are resident in Junju District, about 60 km north of Mombasa at the Kenyan coast. The area has two high transmission seasons but low-level transmission occurs all year round (infectious bites per year:23-53) (Mwangi et al., 2005).
In order to determine the production of antigen-specific IFNγ by activated peripheral blood mononuclear cells (PBMC), cultured ELISpot analysis was carried out over a period of 10 days in malaria-exposed adults and malaria-naïve individuals. […] Furthermore, when studying the production of antigen-specific IFN-γ by activated peripheral blood mononuclear cells (PBMC) in 12 malaria-exposed adults and 5 malaria-naive individuals, Pf Ferlin-specific T cells were detected to at least one peptide in 4 out of 12 and to more than one peptide in 3 out of 12 malaria-exposed adults (Table 2).

Row | Sequence | INFγ response to individual peptide (responder) (Patient Ad) | INFγ response to individual peptide (responder) (Patient Fr) | INFγ response to individual peptide (responder) (Patient JA029) | INFγ response to individual peptide (responder) (Patient JA030) | INFγ response to individual peptide (responder) (Patient JA046) | INFγ response to individual peptide (responder) (Patient JA047) | INFγ response to individual peptide (responder) (Patient JA066) | INFγ response to individual peptide (responder) (Patient JA067) | INFγ response to individual peptide (responder) (Patient JA086) | INFγ response to individual peptide (responder) (Patient JA006) | INFγ response to individual peptide (responder) (Patient JA007) | INFγ response to individual peptide (responder) (Patient JA087)
1 | ILIPSLPLI (listed as Plasmodium falciparum) [Epitope 6] | no (An INFγ response above SFC 500 identified the patient as a responder.) | no (An INFγ response above SFC 500 identified the patient as a responder.) | no (An INFγ response above SFC 500 identified the patient as a responder.) | yes (An INFγ response above SFC 500 identified the patient as a responder.) | no (An INFγ response above SFC 500 identified the patient as a responder.) | no (An INFγ response above SFC 500 identified the patient as a responder.) | no (An INFγ response above SFC 500 identified the patient as a responder.) | no (An INFγ response above SFC 500 identified the patient as a responder.) | no (An INFγ response above SFC 500 identified the patient as a responder.) |  |  | 
2 | KLIPVNYEL (listed as Plasmodium falciparum) [Epitope 4] | no (An INFγ response above SFC 500 identified the patient as a responder.) | no (An INFγ response above SFC 500 identified the patient as a responder.) | no (An INFγ response above SFC 500 identified the patient as a responder.) | yes (An INFγ response above SFC 500 identified the patient as a responder.) | no (An INFγ response above SFC 500 identified the patient as a responder.) | no (An INFγ response above SFC 500 identified the patient as a responder.) | no (An INFγ response above SFC 500 identified the patient as a responder.) | no (An INFγ response above SFC 500 identified the patient as a responder.) | yes (An INFγ response above SFC 500 identified the patient as a responder.) | no (An INFγ response above SFC 500 identified the patient as a responder.) | no (An INFγ response above SFC 500 identified the patient as a responder.) | 
3 | LLLEGNFYL (listed as Plasmodium falciparum) [Epitope 3] | no (An INFγ response above SFC 500 identified the patient as a responder.) | no (An INFγ response above SFC 500 identified the patient as a responder.) | yes (An INFγ response above SFC 500 identified the patient as a responder.) | no (An INFγ response above SFC 500 identified the patient as a responder.) | no (An INFγ response above SFC 500 identified the patient as a responder.) | no (An INFγ response above SFC 500 identified the patient as a responder.) | no (An INFγ response above SFC 500 identified the patient as a responder.) | no (An INFγ response above SFC 500 identified the patient as a responder.) | yes (An INFγ response above SFC 500 identified the patient as a responder.) | no (An INFγ response above SFC 500 identified the patient as a responder.) |  | 
4 | NLLDPLVVV (listed as Plasmodium falciparum) [Epitope 1] | yes (An INFγ response above SFC 500 identified the patient as a responder.) | no (An INFγ response above SFC 500 identified the patient as a responder.) | yes (An INFγ response above SFC 500 identified the patient as a responder.) | no (An INFγ response above SFC 500 identified the patient as a responder.) | no (An INFγ response above SFC 500 identified the patient as a responder.) | no (An INFγ response above SFC 500 identified the patient as a responder.) | no (An INFγ response above SFC 500 identified the patient as a responder.) | no (An INFγ response above SFC 500 identified the patient as a responder.) | no (An INFγ response above SFC 500 identified the patient as a responder.) | no (An INFγ response above SFC 500 identified the patient as a responder.) | no (An INFγ response above SFC 500 identified the patient as a responder.) | no (An INFγ response above SFC 500 identified the patient as a responder.)
5 | YLYEKQQEL (listed as Plasmodium falciparum) [Epitope 5] | no (An INFγ response above SFC 500 identified the patient as a responder.) | no (An INFγ response above SFC 500 identified the patient as a responder.) | no (An INFγ response above SFC 500 identified the patient as a responder.) | yes (An INFγ response above SFC 500 identified the patient as a responder.) | no (An INFγ response above SFC 500 identified the patient as a responder.) | no (An INFγ response above SFC 500 identified the patient as a responder.) |  |  | no (An INFγ response above SFC 500 identified the patient as a responder.) | no (An INFγ response above SFC 500 identified the patient as a responder.) |  | 
6 | YLYVNIHKI (listed as Plasmodium falciparum) [Epitope 2] | no (An INFγ response above SFC 500 identified the patient as a responder.) | no (An INFγ response above SFC 500 identified the patient as a responder.) | yes (An INFγ response above SFC 500 identified the patient as a responder.) | no (An INFγ response above SFC 500 identified the patient as a responder.) | no (An INFγ response above SFC 500 identified the patient as a responder.) | no (An INFγ response above SFC 500 identified the patient as a responder.) | no (An INFγ response above SFC 500 identified the patient as a responder.) | no (An INFγ response above SFC 500 identified the patient as a responder.) | no (An INFγ response above SFC 500 identified the patient as a responder.) | no (An INFγ response above SFC 500 identified the patient as a responder.) |  | 
